In ChEMBL document CHEMBL1201862, “PubChem BioAssay data set” (2004):
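96-well plates; 48 h exposure; 5 concentrations. Endpoints by linear interpolation between flanking doses. Not reached: highest tested concentration assigned. GI50 = concentration required for 50% inhibition of growth.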 Activity calls are given as the source filed them. Rule as the data show it: active = GI50 up to about 1.1 µM and inactive = higher.

Tests used:
Experiment in all cases: NCI anticancer screen, dose series, 48 h
[1] = tested on: SK-MEL-2
[2] = tested on: A498
[3] = tested on: OVCAR-4
[4] = tested on: SF-295
[5] = tested on: NCI-H23
[6] = tested on: UACC-257
[7] = tested on: BT-549
[8] = tested on: SF-539
[9] = tested on: EKVX
[10] = tested on: SW-620
[11] = tested on: RXF 393
[12] = tested on: PC-3
[13] = tested on: HCT-116
[14] = tested on: OVCAR-5
[15] = tested on: Hs-578T
[16] = tested on: SN12C
[17] = tested on: SK-MEL-5
[18] = tested on: HCC 2998

SMILES: COc1ccc(NC(=O)N(C)CC2(O)CCC(C(C)(C)C)CC2)cc1 (centres undefined)
- GI50 [1]: 63.8 µM (inactive)
- GI50 [2]: 81.3 µM (inactive)
- GI50 [3]: 66.2 µM (inactive)
- GI50 [4]: 29 µM (inactive)
- GI50 [5]: 99.3 µM (inactive)
- GI50 [6]: 33.9 µM (inactive)
- GI50 [7]: 63.4 µM (inactive)
- GI50 [8]: > 100 µM (inactive)
- GI50 [9]: 56.4 µM (inactive)
- GI50 [10]: > 100 µM (inactive)
- GI50 [11]: 24.8 µM (inactive)
- GI50 [12]: 14.7 µM (inactive)
- GI50 [13]: 83.4 µM (inactive)
- GI50 [14]: > 100 µM (inactive)
- GI50 [15]: 33.9 µM (inactive)
- GI50 [16]: > 100 µM (inactive)

SMILES: Nc1nc2c(=O)c3ccccc3sc2s1
- GI50 [1]: > 100 µM (inactive)
- GI50 [2]: 25.4 µM (inactive)
- GI50 [4]: 44.1 µM (inactive)
- GI50 [5]: 48.5 µM (inactive)
- GI50 [6]: 54.2 µM (inactive)
- GI50 [7]: 41.4 µM (inactive)
- GI50 [8]: 17.3 µM (inactive)
- GI50 [9]: 23 µM (inactive)
- GI50 [10]: > 100 µM (inactive)
- GI50 [11]: 39.8 µM (inactive)
- GI50 [12]: 60 µM (inactive)
- GI50 [17]: 35.5 µM (inactive)
- GI50 [13]: 57.8 µM (inactive)
- GI50 [14]: 80.7 µM (inactive)
- GI50 [15]: 43.7 µM (inactive)
- GI50 [16]: 84.3 µM (inactive)

SMILES: C=CCCC(=O)C(=[N+]=[N-])C(=O)CCC(=O)c1ccccc1
- GI50 [1]: > 10 µM (inactive)
- GI50 [2]: > 10 µM (inactive)
- GI50 [4]: > 10 µM (inactive)
- GI50 [5]: > 10 µM (inactive)
- GI50 [6]: > 10 µM (inactive)
- GI50 [7]: > 10 µM (inactive)
- GI50 [8]: > 10 µM (inactive)
- GI50 [9]: > 10 µM (inactive)
- GI50 [10]: > 10 µM (inactive)
- GI50 [11]: > 10 µM (inactive)
- GI50 [12]: > 10 µM (inactive)
- GI50 [17]: > 10 µM (inactive)
- GI50 [14]: > 10 µM (inactive)
- GI50 [15]: > 10 µM (inactive)
- GI50 [16]: > 10 µM (inactive)

SMILES: CC12OC(=O)[C@@]3(O)CCC4C(C[C@H]5O[C@]56CC=CC(=O)[C@]46C)C45OC[C@H]6C(=O)O[C@@H]1C[C@@]6(C)[C@H](C4=O)C23O5 (some centres undefined)
- GI50 [1]: 3.01 µM (inactive)
- GI50 [18]: 3.12 µM (inactive)
- GI50 [3]: 2.01 µM (inactive)
- GI50 [4]: 4.25 µM (inactive)
- GI50 [5]: 0.746 µM (active)
- GI50 [6]: 1.32 µM (inactive)
- GI50 [7]: 0.818 µM (active)
- GI50 [8]: 0.252 µM (active)
- GI50 [9]: 3.28 µM (inactive)
- GI50 [10]: 0.671 µM (active)
- GI50 [11]: 0.39 µM (active)
- GI50 [12]: 3.13 µM (inactive)
- GI50 [17]: 1.53 µM (inactive)
- GI50 [13]: 1.33 µM (inactive)
- GI50 [14]: 3.34 µM (inactive)
- GI50 [15]: 5.47 µM (inactive)
- GI50 [16]: 0.953 µM (active)

SMILES: C[Si](C)(C)C#Cc1cc(-c2nc3ccccc3s2)ccc1N
- GI50 [2]: 19.9 µM (inactive)
- GI50 [3]: 14.9 µM (inactive)
- GI50 [4]: 18.6 µM (inactive)
- GI50 [5]: 18.5 µM (inactive)
- GI50 [6]: 19.5 µM (inactive)
- GI50 [7]: 18.3 µM (inactive)
- GI50 [8]: 18.7 µM (inactive)
- GI50 [9]: 12 µM (inactive)
- GI50 [10]: 18.1 µM (inactive)
- GI50 [11]: 17.5 µM (inactive)
- GI50 [12]: 16.2 µM (inactive)
- GI50 [17]: 15.5 µM (inactive)
- GI50 [13]: 13.7 µM (inactive)
- GI50 [14]: 16.5 µM (inactive)
- GI50 [15]: 20.8 µM (inactive)
- GI50 [16]: 15.5 µM (inactive)

SMILES: O=C1C([N-]S(=O)(=O)c2ccccc2)=C([n+]2ccc(Cc3ccccc3)cc2)C(=O)c2ccccc21
- GI50 [1]: 1.5 µM (inactive)
- GI50 [18]: 1.2 µM (inactive)
- GI50 [3]: 1.56 µM (inactive)
- GI50 [4]: 1.79 µM (inactive)
- GI50 [5]: 0.284 µM (active)
- GI50 [6]: 1.22 µM (inactive)
- GI50 [7]: 1.36 µM (inactive)
- GI50 [8]: 1.79 µM (inactive)
- GI50 [9]: 1.76 µM (inactive)
- GI50 [10]: 0.641 µM (active)
- GI50 [11]: 2.31 µM (inactive)
- GI50 [12]: 2.21 µM (inactive)
- GI50 [17]: 0.145 µM (active)
- GI50 [13]: 0.91 µM (active)
- GI50 [14]: 2.03 µM (inactive)
- GI50 [15]: 2.19 µM (inactive)
- GI50 [16]: 1.7 µM (inactive)

SMILES: O=C(Nc1ccc2cc3ccccc3cc2c1)c1cc2c(cc1Cl)Sc1nccn1S2(=O)=O
- GI50 [1]: 85.9 µM (inactive)
- GI50 [18]: 6.84 µM (inactive)
- GI50 [3]: 10.3 µM (inactive)
- GI50 [4]: 13.4 µM (inactive)
- GI50 [5]: 46.5 µM (inactive)
- GI50 [6]: 58.3 µM (inactive)
- GI50 [7]: 32.5 µM (inactive)
- GI50 [8]: 7.8 µM (inactive)
- GI50 [9]: 35.6 µM (inactive)
- GI50 [10]: 13.9 µM (inactive)
- GI50 [11]: 45.6 µM (inactive)
- GI50 [12]: 6.47 µM (inactive)
- GI50 [17]: 7.93 µM (inactive)
- GI50 [13]: 3.85 µM (inactive)
- GI50 [14]: 21.7 µM (inactive)
- GI50 [15]: > 100 µM (inactive)
- GI50 [16]: 60.3 µM (inactive)
